Laboratory results taken from PubChem BioAssay (NCI).
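Interpolation was linear, between the two tested concentrations surrounding the appropriate level; five concentrations were tested over 48 hours in 96-well plates. Definition used: TGI = concentration required for complete inhibition of growth.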

Assays:
Test in all cases: inhibition of tumour cell growth, NCI panel, 48 h
786-0 renal = system: 786-0 renal
A498 renal = system: A498 renal
A549 NSCLC = system: A549 NSCLC
ACHN renal = system: ACHN renal
BT-549 breast = system: BT-549 breast
CAKI-1 renal = system: CAKI-1 renal
COLO 205 colon = system: COLO 205 colon
DLD-1 colon = system: DLD-1 colon
DMS 114 small cell lung = system: DMS 114 small cell lung
DMS 273 small cell lung = system: DMS 273 small cell lung
DU-145 prostate = system: DU-145 prostate
EKVX NSCLC = system: EKVX NSCLC
HCC-2998 colon = system: HCC-2998 colon
HCT-116 colon = system: HCT-116 colon
HCT-15 colon = system: HCT-15 colon
HOP-18 NSCLC = system: HOP-18 NSCLC
HOP-62 NSCLC = system: HOP-62 NSCLC
HOP-92 NSCLC = system: HOP-92 NSCLC
HS 578T breast = system: HS 578T breast
HT29 colon = system: HT29 colon
IGROV1 ovarian = system: IGROV1 ovarian
KM12 colon = system: KM12 colon
KM20L2 colon = system: KM20L2 colon
LOX IMVI melanoma = system: LOX IMVI melanoma
LXFL 529 NSCLC = system: LXFL 529 NSCLC
M14 melanoma = system: M14 melanoma
M19-MEL melanoma = system: M19-MEL melanoma
MALME-3M melanoma = system: MALME-3M melanoma
MDA-MB-231 breast = system: MDA-MB-231 breast
MDA-MB-435 = system: MDA-MB-435
MDA-N = system: MDA-N
MOLT-4 leukemia = system: MOLT-4 leukemia
NCI-H226 lung = system: NCI-H226 lung
NCI-H23 lung = system: NCI-H23 lung
NCI-H460 lung = system: NCI-H460 lung
NCI-H522 lung = system: NCI-H522 lung
OVCAR-3 ovarian = system: OVCAR-3 ovarian
OVCAR-4 ovarian = system: OVCAR-4 ovarian
OVCAR-5 ovarian = system: OVCAR-5 ovarian
OVCAR-8 ovarian = system: OVCAR-8 ovarian
PC-3 prostate = system: PC-3 prostate
RXF 393 renal = system: RXF 393 renal
RXF-631 renal = system: RXF-631 renal
SF-268 CNS = system: SF-268 CNS
SF-295 CNS = system: SF-295 CNS
SF-539 CNS = system: SF-539 CNS
SK-MEL-2 melanoma = system: SK-MEL-2 melanoma
SK-MEL-28 melanoma = system: SK-MEL-28 melanoma
SK-MEL-5 melanoma = system: SK-MEL-5 melanoma
SK-OV-3 ovarian = system: SK-OV-3 ovarian
SN12C renal = system: SN12C renal
SNB-19 CNS = system: SNB-19 CNS
SNB-75 CNS = system: SNB-75 CNS
SNB-78 CNS = system: SNB-78 CNS
SW-620 colon = system: SW-620 colon
T-47D breast = system: T-47D breast
TK-10 renal = system: TK-10 renal
U251 CNS = system: U251 CNS
UACC-257 melanoma = system: UACC-257 melanoma
UACC-62 melanoma = system: UACC-62 melanoma
UO-31 renal = system: UO-31 renal
XF 498 CNS = system: XF 498 CNS

In the case of `Cc1cc(NCCCCCCCNc2cc(C)nc3cc([N+](=O)[O-])ccc23)c2ccc([N+](=O)[O-])cc2n1`, the TGI (786-0 renal) is reported as 39.3 µM, the TGI (A498 renal) is reported as 30.4 µM and the TGI (A549 NSCLC) is reported as 9.41 µM. The TGI (ACHN renal) was 28.5 µM, the TGI (BT-549 breast) was 67.3 µM and the TGI (CAKI-1 renal) was 65.2 µM. The TGI (COLO 205 colon) was 27 µM, the TGI (DLD-1 colon) was 3.55 µM and the TGI (DMS 114 small cell lung) was 3.28 µM. It also gave a TGI (DMS 273 small cell lung) of 15.5 µM, a TGI (DU-145 prostate) of 11 µM and a TGI (EKVX NSCLC) of 35.9 µM. For the same compound, the TGI (HCC-2998 colon) was > 55.6 µM, the TGI (HCT-116 colon) was 3.56 µM and the TGI (HCT-15 colon) was 9.8 µM. For the same compound, the TGI (HOP-18 NSCLC) was 31.1 µM, the TGI (HOP-62 NSCLC) was 42 µM and the TGI (HOP-92 NSCLC) was 47 µM. The TGI (HS 578T breast) was 5.53 µM, the TGI (HT29 colon) was 8.43 µM and the TGI (IGROV1 ovarian) was 37.1 µM. For the same compound, the TGI (KM12 colon) was 3.74 µM, the TGI (KM20L2 colon) was 32 µM and the TGI (LOX IMVI melanoma) was 5.69 µM. For the same compound, the TGI (LXFL 529 NSCLC) was 3.14 µM, the TGI (M14 melanoma) was 41.2 µM and the TGI (M19-MEL melanoma) was 35.9 µM. The TGI (MALME-3M melanoma) was > 71.1 µM, the TGI (MDA-MB-231 breast) was 6.58 µM and the TGI (MDA-MB-435) was 39 µM. It also gave a TGI (MDA-N) of 3.18 µM, a TGI (MOLT-4 leukemia) of 4.23 µM and a TGI (NCI-H226 lung) of 37.4 µM. The TGI (NCI-H23 lung) was > 24.9 µM, the TGI (NCI-H460 lung) was 6.36 µM and the TGI (NCI-H522 lung) was 2.78 µM. For the same compound, the TGI (OVCAR-3 ovarian) was 25 µM, the TGI (OVCAR-4 ovarian) was 4.31 µM and the TGI (OVCAR-5 ovarian) was 29.8 µM. The TGI (OVCAR-8 ovarian) was 3.85 µM, the TGI (PC-3 prostate) was 31.1 µM and the TGI (RXF 393 renal) was 22.9 µM. For the same compound, the TGI (RXF-631 renal) was > 45.9 µM, the TGI (SF-268 CNS) was 7.5 µM and the TGI (SF-295 CNS) was 26.4 µM. For the same compound, the TGI (SF-539 CNS) was 39.5 µM, the TGI (SK-MEL-2 melanoma) was 98.3 µM and the TGI (SK-MEL-28 melanoma) was 10.1 µM. The TGI (SK-MEL-5 melanoma) was 29.9 µM, the TGI (SK-OV-3 ovarian) was 49.3 µM and the TGI (SN12C renal) was 13.4 µM. The TGI (SNB-19 CNS) was 39.5 µM, the TGI (SNB-75 CNS) was 40.9 µM and the TGI (SNB-78 CNS) was > 31.6 µM. For the same compound, the TGI (SW-620 colon) was 4.61 µM, the TGI (T-47D breast) was 18.5 µM and the TGI (TK-10 renal) was 39 µM. For the same compound, the TGI (U251 CNS) was 27.4 µM, the TGI (UACC-257 melanoma) was 36.9 µM and the TGI (UACC-62 melanoma) was 53.2 µM. For the same compound, the TGI (UO-31 renal) was 29 µM and the TGI (XF 498 CNS) was > 48.1 µM.
